# According to patent US12240862B2, “Inhibitors of peptidylarginine deiminases” (Gilead Sciences, Inc., priority 2020, dated 2025):
# Molecular target: T1, human PAD4 (Homo sapiens, UniProt Q9UM07)
# T1 construct: human PAD4 (NM_012387), A2P663, was PCR amplified; His-SUMO (N, cleaved yes); made in house; host or cells: E. coli BL21(DE3)
# Experiment: In vitro PAD4 BAEE biochemical assay
# Conditions: human PAD4, BAEE substrate; 5 nM PAD4, 2 mM calcium chloride, 3 mM BAEE; geometric mean of multiple experiments
# In short: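 Tag-free recombinant hPAD4 (5 nM), 2 mM CaCl2, 3 mM BAEE, 50 mM MOPS pH 7.6, 2 mM DTT; 30 min compound preincubation, 2 h reaction, all 25 °C. EDTA quench; ammonia read via o-phthalaldehyde amine coupling, 1 h.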
# T1 sequence (Q9UM07 2-663): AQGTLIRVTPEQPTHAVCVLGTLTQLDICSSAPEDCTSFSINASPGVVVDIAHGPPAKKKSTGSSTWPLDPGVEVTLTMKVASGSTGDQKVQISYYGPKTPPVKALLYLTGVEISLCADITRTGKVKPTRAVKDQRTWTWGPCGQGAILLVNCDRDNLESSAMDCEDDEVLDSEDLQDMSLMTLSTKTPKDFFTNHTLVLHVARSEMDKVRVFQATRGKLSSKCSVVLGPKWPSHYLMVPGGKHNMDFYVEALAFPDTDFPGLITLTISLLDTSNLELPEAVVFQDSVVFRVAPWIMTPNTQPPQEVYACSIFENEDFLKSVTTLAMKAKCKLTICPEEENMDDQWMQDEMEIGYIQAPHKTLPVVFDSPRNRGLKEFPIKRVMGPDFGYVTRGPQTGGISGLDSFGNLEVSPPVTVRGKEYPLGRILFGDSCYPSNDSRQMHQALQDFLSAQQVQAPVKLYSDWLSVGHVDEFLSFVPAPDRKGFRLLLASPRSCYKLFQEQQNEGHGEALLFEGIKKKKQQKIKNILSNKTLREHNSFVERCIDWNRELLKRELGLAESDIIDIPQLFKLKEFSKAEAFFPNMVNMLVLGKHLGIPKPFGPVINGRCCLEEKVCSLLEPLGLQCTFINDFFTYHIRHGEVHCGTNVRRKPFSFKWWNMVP
row,Compound,IC50 [nM]
1,"COc1cc(C(=O)N2[C@H]3CC[C@@H]2[C@H](N)C3)cc2nc(-c3cc4ccc([C@@H](C)NC(=O)N5CCCC5)nc4n3CC3CC3)c(C3CC3)n12 [Example 249, ~{N}-[(1~{R})-1-[2-[7-[(1~{R},2~{R},4~{S})-2-amino-7-azabicyclo[2.2.1]heptane-7-carbonyl]-3-cyclopropyl-5-methoxyimidazo[1,2-a]pyridin-2-yl]-1-(cyclopropylmethyl)pyrrolo [2,3-b]pyridin-6-yl]ethyl] pyrrolidine-1-carboxamide]",66
2,"COc1cc(C(=O)N2C[C@H]3CC[C@@H]2[C@@H]3N)cc2nc(-c3cc4ccc([C@@H](C)NC(=O)N5CCCC5)nc4n3CC3CC3)c(C)n12 [Example 250, N-((R)-1-(2-(7-((1R,4R,7R)-7-amino-2-azabicyclo[2.2.1]heptane-2-carbonyl)-5-methoxy-3-methylimidazo[1,2-a]pyridin-2-yl)-1-(cyclopropylmethyl)-1H-pyrrolo[2,3-b]pyridin-6-yl)ethyl) pyrrolidine-1-carboxamide]",193
3,"COc1cc(C(=O)N2CCC[C@@H](N)C2)cc2nc(-c3cc4ccc([C@@H](C)NC(=O)N5CCCC5)nc4n3CC3CC3)c(C)n12 [Example 252, ~{N}-[(1~{R})-1-[2-[7-[(3~{R})-3-aminopiperidine-1-carbonyl]-5-methoxy-3-methylimidazo [1,2-a]pyridin-2-yl]-1-(cyclopropylmethyl)pyrrolo [2,3-b]pyridin-6-yl]ethyl] pyrrolidine-1-carboxamide]",98.1
4,"COc1cc(C(=O)N2CCC[C@@H](N)C2)cc2nc(-c3cc4ccc([C@@H](C)NC(=O)N(C)C)nc4n3CC3CC3)c(C)n12 [Example 253, 3-[(1~{R})-1-[2-[7-[(3~{R})-3-aminopiperidine-1-carbonyl]-5-methoxy-3-methylimidazo[1,2-a]pyridin-2-yl]-1-(cyclopropylmethyl)pyrrolo [2,3-b]pyridin-6-yl]ethyl]-1,1-dimethylurea]",135
5,"COc1cc(C(=O)N2CCC[C@@H](N)C2)cc2nc(-c3cc4ccc([C@@H](C)NC(=O)OC5CCCC5)nc4n3CC3CC3)c(C)n12 [Example 255, cyclopentyl~{N}-[(1~{R})-1-[2-[7-[(3~{R})-3-aminopiperidine-1-carbonyl]-5-methoxy-3-methylimidazo[1,2-a]pyridin-2-yl]-1-(cyclopropylmethyl)pyrrolo [2,3-b]pyridin-6-yl]ethyl] carbamate]",286
6,"COc1cc(C(=O)N2CCC[C@@H](N)C2)cc2nc(-c3cc4ccc([C@@H](C)NC(=O)OCC(C)(C)C)nc4n3CC3CC3)c(C)n12 [Example 256, 2,2-dimethylpropyl~{N}-[(1~{R})-1-[2-[7-[(3~ {R})-3-aminopiperidine-1-carbonyl]-5-methoxy-3-methylimidazo[1,2-a]pyridin-2-yl]-1-(cyclopropylmethyl)pyrrolo [2,3-b]pyridin-6-yl]ethyl] carbamate]",486
7,"COc1cc(C(=O)N2CCC[C@@H](N)C2)cc2nc(-c3cc4ccc([C@@H](C)NC(=O)OC(C)(C)C)nc4n3CC3CC3)c(C)n12 [Example 257, ~{tert}-butyl~{N}-[(1~{R})-1-[2-[7-[(3~{R})-3-aminopiperidine-1-carbonyl]-5-methoxy-3-methylimidazo[1,2-a]pyridin-2-yl]-1-(cyclopropylmethyl)pyrrolo [2,3-b]pyridin-6-yl]ethyl] carbamate]",208
8,COC(=O)N[C@H](C)c1ccc2cc(-c3nc4cc(C(=O)N5CCC[C@@H](N)C5)cc(OC)n4c3C)n(CC3CC3)c2n1 [Example 258],225
9,"COc1cc(C(=O)N2[C@H]3CC[C@@H]2[C@H](N)C3)cc2nc(-c3cc4ccc([C@@H](C)Nc5ccc(F)cn5)nc4n3CC3CC3)c(C)n12 [Example 259, ((1R,2R,4S)-2-amino-7-azabicyclo[2.2.1]heptan-7-yl)(2-(1-(cyclopropylmethyl)-6-((R)-1-((5-fluoropyridin-2-yl)amino)ethyl)-1H-pyrrolo[2,3-b]pyridin-2-yl)-5-methoxy-3-methylimidazo[1,2-a]pyridin-7-yl)methanone]",180
10,"COc1cc(C(=O)N2[C@H]3CC[C@@H]2[C@H](N)C3)cc2nc(-c3cc4ccc([C@@H](C)Nc5cnn(C(C)(C)C)c5)nc4n3CC3CC3)c(C)n12 [Example 260, [(1~{R},2~{R},4~{S})-2-amino-7-azabicyclo[2.2.1]heptan-7-yl]-[2-[6-[(1~{R})-1-[(1-~{tert}-butylpyrazol-4-yl)amino]ethyl]-1-(cyclopropylmethyl)pyrrolo [2,3-b]pyridin-2-yl]-5-methoxy-3-methylimidazo [1,2-a]pyridin-7-yl] methanone]",122
11,"COc1cc(C(=O)N2[C@H]3CC[C@@H]2[C@H](N)C3)cc2nc(-c3cc4ccc([C@@H](C)Nc5ccccn5)nc4n3CC3CC3)c(C)n12 [Example 261, [(1~{R},2~{R},4~{S})-2-amino-7-azabicyclo [2.2.1]heptan-7-yl]-[2-[1-(cyclopropylmethyl)-6-[(1~{R})-1-(pyridin-2-ylamino)ethyl]pyrrolo[2,3-b]pyridin-2-yl]-5-methoxy-3-methylimidazo[1,2-a]pyridin-7-yl]methanone]",144
12,"COc1cc(C(=O)N2[C@H]3CC[C@@H]2[C@H](N)C3)cc2nc(-c3cc4ccc([C@@H](C)Nc5cccc(Cl)n5)nc4n3CC3CC3)c(C)n12 [Example 262, [(1~{R},2~{R},4~{S})-2-amino-7-azabicyclo [2.2.1]heptan-7-yl]-[2-[6-[(1~{R})-1-[(6-chloropyridin-2-yl)amino]ethyl]-1-(cyclopropylmethyl)pyrrolo[2,3-b]pyridin-2-yl]-5-methoxy-3-methylimidazo[1,2-a]pyridin-7-yl]methanone]",867

# Further lines, results first:
row,IC50 [nM],Compound
1,80.7,"COc1cc(C(=O)N2[C@H]3CC[C@@H]2[C@H](N)C3)cc2nc(-c3cc4ccc([C@@H](C)NC(=O)N5CCC(F)(F)C5)nc4n3CC3CC3)c(C)n12 [Example 243, ~{N}-[(1~{R})-1-[2-[7-[(1~{R},2~{R},4~{S})-2-amino-7-azabicyclo[2.2.1]heptane-7-carbonyl]-5-methoxy-3-methylimidazo [1,2-a]pyridin-2-yl]-1-(cyclopropylmethyl)pyrrolo [2,3-b]pyridin-6-yl]ethyl]-3,3-difluoropyrrolidine-1-carboxamide]"
2,89.6,"COc1cc(C(=O)N2[C@H]3CC[C@@H]2[C@H](N)C3)cc2nc(-c3cc4ccc([C@@H](C)NC(=O)NC(C)(C)C)nc4n3CC3CC3)c(C)n12 [Example 244, 1-[(1~{R})-1-[2-[7-[(1~{R},2~{R},4~{S})-2-amino-7-azabicyclo[2.2.1]heptane-7-carbonyl]-5-methoxy-3-methylimidazo [1,2-a]pyridin-2-yl]-1-(cyclopropylmethyl)pyrrolo [2,3-b]pyridin-6-yl]ethyl]-3-~{tert}-butylurea]"
3,62.2,"COc1cc(C(=O)N2[C@H]3CC[C@@H]2[C@H](N)C3)cc2nc(-c3cc4ccc([C@@H](C)NC(=O)N5C[C@@H](F)[C@@H](F)C5)nc4n3CC3CC3)c(C)n12 [Example 245, (3~{R},4~{S})-~{N}-[(1~{R})-1-[2-[7-[(1~{R},2~{R},4~{S})-2-amino-7-azabicyclo [2.2.1]heptane-7-carbonyl]-5-methoxy-3-methylimidazo [1,2-a]pyridin-2-yl]-1-(cyclopropylmethyl)pyrrolo [2,3-b]pyridin-6-yl]ethyl]-3,4-difluoropyrrolidine-1-carboxamide]"
4,82.2,"COc1cc(C(=O)N2[C@H]3CC[C@@H]2[C@H](N)C3)cc2nc(-c3cc4ccc([C@@H](C)NC(=O)N5CC6CC6C5)nc4n3CC3CC3)c(C)n12 (some centres unmarked) [Example 246, ~{N}-[(1~{R})-1-[2-[7-[(1~{R},2~{R},4~{S})-2-amino-7-azabicyclo[2.2.1]heptane-7-carbonyl]-5-methoxy-3-methylimidazo [1,2-a]pyridin-2-yl]-1-(cyclopropylmethyl)pyrrolo [2,3-b]pyridin-6-yl]ethyl]-3-azabicyclo[3.1.0]hexane-3-carboxamide]"
5,70,COc1cc(C(=O)N2[C@H]3CC[C@@H]2[C@H](N)C3)cc2nc(-c3cc4ccc([C@@H](C)NC(=O)N5CCC5)nc4n3CC3CC3)c(C)n12 [Example 247]
6,55.9,"COc1cc(C(=O)N2[C@H]3CC[C@@H]2[C@H](N)C3)cc2nc(-c3cc4ccc([C@@H](C)NC(=O)N5CC[C@H](F)C5)nc4n3CC3CC3)c(C)n12 [Example 248, (3~{S})-~{N}-[(1~{R})-1-[2-[7-[(1~{R},2~{R},4~{S})-2-amino-7-azabicyclo[2.2.1]heptane-7-carbonyl]-5-methoxy-3-methylimidazo [1,2-a]pyridin-2-yl]-1-(cyclopropylmethyl)pyrrolo [2,3-b]pyridin-6-yl]ethyl]-3-fluoropyrrolidine-1-carboxamide]"
7,50.2,"COc1cc(C(=O)N2[C@H]3CC[C@@H]2[C@H](N)C3)cc2nc(-c3cc4ccc([C@@H](C)NC(=O)N5CCCC5)nc4n3CC3CC3)c(C)n12 [Example 251, N—((R)-1-(2-(7-((1R,2R,4S)-2-amino-7-azabicyclo[2.2.1]heptane-7-carbonyl)-5-methoxy-3-methylimidazo[1,2-a]pyridin-2-yl)-1-(cyclopropylmethyl)-1H-pyrrolo[2,3-b]pyridin-6-yl)ethyl)pyrrolidine-1-carboxamide]"
8,110,"COc1cc(C(=O)N2[C@H]3CC[C@@H]2[C@H](N)C3)cc2nc(-c3cc4ccc([C@@H](C)NC(=O)OC(C)C)nc4n3CC3CC3)c(C)n12 [Example 254, propan-2-yl~{N}-[(1~{R})-1-[2-[7-[(1~{R}, 2~{R},4~{S})-2-amino-7-azabicyclo[2.2.1]heptane-7-carbonyl]-5-methoxy-3-methylimidazo [1,2-a]pyridin-2-yl]-1-(cyclopropylmethyl)pyrrolo [2,3-b]pyridin-6-yl]ethyl] carbamate]"
